The source of these data is patent publication US9585905B2, “Sweet taste receptor antagonist compositions” (Four LLC, priority 2014, dated 2017).

“Also recorded” adds a separate entry of the source. Like-named read-outs stand apart in the source and are kept apart here.

The test system of experiment [1] is bitter taste of bitter compounds (quinine, denatonium benzoate, tetralone, sucrose octaacetate, pseudoephedrine, dextromethorphan). To be noted: cited from earlier work.
The subject of experiment [2] is sweet taste (10% sucrose reference). The experiment in a line: Duration of sweet taste blockade: sensory panelist rates sweetness intensity (SI) of 10% sucrose after 5 min oral exposure to sample. The format is in vivo, human. To be noted: for SI: 0-10 scale, 10% sucrose=10; for sweet taste inhibition following exposure of the oral cavity (in words): in vivo. How it is done: A standard method was developed to quantify the duration of sweet taste blockade for the gymnemic acid compositions of the present invention. […] In all cases, sucrose was used as the sweetener in sweet taste blockade quantification. Thus, 10%, 8%, 6%, 4%, and 2% (w/v) sucrose solutions in reverse osmosis (RO) purified water were freshly prepared and, at the beginning of each experiment, 15 mL samples of each sucrose solution were used to calibrate sensory panelist on sweetness intensity. The sensory panelist is described as a person with training in sensory evaluation with at least 1 year of experience as a sensory panelist in the area of gustatation, and preferably with training in descriptive analysis. Standard scaling methodology was used for quantification of sweetness intensity (SI) on the following scale: • 10% sucrose=10, • 8% sucrose=8, • 6% sucrose=6, • 4% sucrose=4, • 2% sucrose=2, and • 0% sucrose=0.
Following panelist calibration with the sucrose reference standards, the panelist rinsed their mouth with 15 mL RO water and the sweetness inhibitor sample in 15 mL RO water was then immediately taken into the mouth and gently agitated for 5 minutes. The sweet taste inhibitor sample was then expectorated and a 15 mL sample of the 10% sucrose reference solution was then immediately re-tasted, perceived SI within 15 seconds was rated on the 0-10 scale, the sample expectorated, and the mouth rinsed vigorously with 15 mL RO water. The 10% sucrose sample was then re-tasted every 15 min and SI rated. The panelist was asked to make comments on the observations of non-sweet taste attributes at each sucrose reference tasting interval.

[3] abbreviates: 10% sucrose re-tasted at 15 min.
Setting [4] is: 10% sucrose re-tasted at 30 min.
The mark [5] stands for this setting: 10% sucrose re-tasted at 45 min.
Setting [6] is: 10% sucrose re-tasted at 60 min.
Where [7] appears, read: 10% sucrose re-tasted at 75 min.
The mark [8] stands for this setting: 10% sucrose re-tasted at 90 min.
Where [9] appears, read: 10% sucrose re-tasted at 105 min.
[10] abbreviates: 10% sucrose re-tasted at 120 min.
Setting [11] is: 10% sucrose tasted at 0 min after expectoration of sample (in 15 mL RO water, held 5 min).

Regarding `O=S(=O)([O-])[O-].[Zn+2]` [zinc sulfate], the bitterness inhibitory activity result in experiment [1] (against denatonium benzoate) was “effective bitterness inhibitor”; in experiment [1] (against dextromethorphan) it was “no significant bitterness inhibitory activity”; in experiment [1] (against pseudoephedrine) it was “no significant bitterness inhibitory activity”; in experiment [1] (against quinine), “effective bitterness inhibitor”; in experiment [1] (against sucrose octaacetate) it was “no significant bitterness inhibitory activity”; in experiment [1] (against tetralone), “effective bitterness inhibitor”. The “inhibition of the bitterness of quinine hydrochloride (QHCl)” value in experiment [1] (up to) is “up to 70%”.
For `COc1ccc(OC(C)C(=O)O)cc1` (stereo not drawn) [Lactisole], the SI in experiment [2] (setting [3]), in experiment [2] (setting [4]), in experiment [2] (setting [5]), in experiment [2] (setting [6]), in experiment [2] (setting [7]) and in experiment [2] (setting [8]) was 10 throughout. Also, the SI is 10 in experiment [2] (setting [9]), 10 in experiment [2] (setting [10]) and 12 in experiment [2] (setting [11]). In experiment [2], the “sweet taste inhibition following exposure of the oral cavity (in words)” value is given as “no sweet taste inhibition was observed; also recorded: caused no sweetness inhibition following expectoration”.

B1: Miraculin (protein, UniProt P13087 30-220, looked up)
Miraculin: DSAPNPVLDIDGEKLRTGTNYYIVPVLRDHGGGLTVSATTPNGTFVCPPRVVQTRKEVDHDRPLAFFPENPKEDVVRVSTDLNINFSAFMPCRWTSSTVWRLDKYDESTGQYFVTIGGVKGNPGPETISSWFKIEEFCGSGFYKLVFCPTVCGSCKVKCGDVGIYIDQKGRRRLALSDKPFAFEFNKTVYF
Turning to B1, the SI in experiment [2] (setting [3]), in experiment [2] (setting [4]), in experiment [2] (setting [5]), in experiment [2] (setting [6]), in experiment [2] (setting [7]) and in experiment [2] (setting [8]) was 10 in each case. Further, the SI in experiment [2] (setting [9]), in experiment [2] (setting [10]) and in experiment [2] (setting [11]) was 10 each time. In addition, in experiment [2], the “sweet taste inhibition following exposure of the oral cavity (in words)” value is reported as “No sweet taste inhibitory effect was observed”.
